Values quoted from earlier work, collected in patent US11395819B1, “Antiviral and virucidal lung nebulizer compositions and related treatment methods” (priority 2021, dated 2022).
Structures can show the parent of a compound that is named as a salt.

Assays:
[1] = system: divergent influenza A strains and influenza B strain
[2] = system: avian H7N9 influenza virus; conditions: mice
[3] = given by inhalation

## CN(C)CCC(c1ccc(Cl)cc1)c1ccccn1 (stereo not drawn) [Chlorpheniramine, chlorpheniramine maleate]
[1]
  inhibitory activity against influenza: potent inhibitory activity
[2]
  protection from fatal challenge: protects mice from fatal challenge
[3]
  bronchodilation: significant bronchodilation
